# According to ChEMBL document CHEMBL5550100, “Discovery of LHF418 as a new potent SOS1 PROTAC degrader” (Bioorg Med Chem, 2024):
# Activity calls are given as the source filed them. The calls are words filed in the database; no cut-off is given here.
# Experiments:
# [1] = biological target: T1, Protein cereblon/Son of sevenless homolog 1 (Homo sapiens, UniProt Q07889+Q96SW2); experiment: PROTAC activity at CRBN/SOS1 in human A549 cells assessed as half life of SOS1 at 3 uM by immunoblot analysis; format: cell-based
# [2] = biological target: T1, Protein cereblon/Son of sevenless homolog 1; experiment: PROTAC activity at CRBN/SOS1 in human A549 cells assessed as protein degradation at 3 uM by immunoblot analysis; format: cell-based; conditions: time <= 72.0 hrs, TDE = time-dependent effect
# [3] = biological target: T1, Protein cereblon/Son of sevenless homolog 1; experiment: PROTAC activity at CRBN/SOS1 in lenalidomide-pretreated human A549 cells assessed as protein degradation at 1 uM incubated for 24 hrs by immunoblot analysis; format: cell-based
# A549 [4] = experiment: Effect on SOS2 in human A549 cells upto 10000 nM incubated for 24 hrs by immunoblot analysis; format: functional, cell-based
# [5] = biological target: T1, Protein cereblon/Son of sevenless homolog 1; experiment: PROTAC activity at CRBN/SOS1 in human A549 cells assessed as protein degradation incubated for 24 hrs by immunoblot analysis; format: cell-based
# [6] = biological target: T1, Protein cereblon/Son of sevenless homolog 1; experiment: PROTAC activity at CRBN/SOS1 in human A549 cells assessed as protein degradation at 10 uM incubated for 24 hrs by immunoblot analysis relative to control; format: cell-based
# MIA PaCa-2 = experiment: Inhibition of colony formation in human MIA PaCa-2 cells upto 30 uM incubated for 14 days by crystal violet staining based analysis; format: functional, cell-based; conditions: time 14.0 day
# A549 [7] = experiment: Effect on GSPT1 in human A549 cells upto 10000 nM incubated for 24 hrs by immunoblot analysis; format: functional, cell-based
# [8] = biological target: T1, Protein cereblon/Son of sevenless homolog 1; experiment: PROTAC activity at CRBN/SOS1 in bafilomycin-pretreated human A549 cells assessed as protein degradation at 1 uM incubated for 24 hrs by immunoblot analysis; format: cell-based
# [9] = biological target: T1, Protein cereblon/Son of sevenless homolog 1; experiment: PROTAC activity at CRBN/SOS1 in MG-132-pretreated human A549 cells assessed as protein degradation at 1 uM incubated for 24 hrs by immunoblot analysis; format: cell-based
# [10] = biological target: T1, Protein cereblon/Son of sevenless homolog 1; experiment: PROTAC activity at CRBN/SOS1 in human A549 cells assessed as protein degradation upto 10000 nM incubated for 24 hrs by immunoblot analysis relative to control; format: cell-based
# [11] = biological target: Protein cereblon/Son of sevenless homolog 1 (Homo sapiens, UniProt Q07889+Q96SW2, G12D); experiment: PROTAC activity at CRBN/SOS1 in human HPAF-II cells harboring KRAS G12D mutant assessed as protein degradation by immunoblot analysis; format: cell-based
# [12] = biological target: T1, Protein cereblon/Son of sevenless homolog 1; experiment: PROTAC activity at 6His-tagged human CRBN TBD domain (318 to 425 residues) expressed in Escherichia coli BL21(DE3)/GST-tagged recombinant human SOS1 (569 to 1049 residues) expressed in Escherichia coli BL21(DE3) protein-protein interaction assessed as ternary complex formation incubated for 1 hr by AlphaScreen assay
# [13] = biological target: Protein cereblon/Son of sevenless homolog 1 (Homo sapiens, UniProt Q07889+Q96SW2, G12C); experiment: PROTAC activity at CRBN/SOS1 in human MIA PaCa-2 cells harboring KRAS G12C mutant assessed as protein degradation by immunoblot analysis; format: cell-based
# [14] = biological target: T1, Protein cereblon/Son of sevenless homolog 1; experiment: PROTAC activity at CRBN/SOS1 in MLN-4924-pretreated human A549 cells assessed as protein degradation at 1 uM incubated for 24 hrs by immunoblot analysis; format: cell-based
# [15] = biological target: T1, Protein cereblon/Son of sevenless homolog 1; experiment: PROTAC activity at CRBN/SOS1 in BI3406-pretreated human A549 cells assessed as protein degradation at 1 uM incubated for 24 hrs by immunoblot analysis; format: cell-based
# [16] = biological target: T1, Protein cereblon/Son of sevenless homolog 1; experiment: PROTAC activity at CRBN/SOS1 in human A549 cells assessed as protein degradation at 3 uM incubated for 24 to 72 hrs by immunoblot analysis; format: cell-based; conditions: time 24-72 hrs
# [17] = biological target: T1, Protein cereblon/Son of sevenless homolog 1; experiment: PROTAC activity at CRBN/SOS1 in CHX-pretreated human A549 cells assessed as protein degradation at 3 uM incubated for 12 hrs by immunoblot analysis; format: cell-based
# [18] = biological target: GTPase KRas (Homo sapiens) (UniProt P01116); experiment: Inhibition of KRAS signalling in serum-starved human A549 cells assessed as decrease in ERK1/2 phosphorylation upto 10000 nM preincubated for 24 hrs followed by EGF stimulation for 1 hr by immunoblot analysis; format: cell-based; conditions: time 25.0 hrs
# [19] = biological target: T1, Protein cereblon/Son of sevenless homolog 1; experiment: PROTAC activity at CRBN/SOS1 in human A549 cells assessed as protein degradation at 0.1 uM incubated for 24 hrs by immunoblot analysis relative to control; format: cell-based
smiles,measurement,setting,value
COc1cc2nc(C)nc(N[C@H](C)c3cc(N)cc(C(F)(F)F)c3)c2cc1O[C@H]1CCN(C(=O)CCCCCCCC(=O)Nc2cccc3c2CN(C2CCC(=O)NC2=O)C3=O)C1 (stereo partly specified),T1/2,[1],22.5 h
same,Activity,[2],Tde
same,Activity,[3],inactive
same,Activity,A549 [4],inactive
same,DC50,[5],209 nM
same,Activity,[5]; dose <= 10000.0 µM,Dose-Dependent Effect
same,Activity,[6],69%
same,inhibition,MIA PaCa-2,Active
same,Activity,A549 [7],inactive
same,Activity,[8],Active
same,Activity,[9],inactive
same,Emax,[10],> 80%
same,DC50,[11],354 nM
same,Activity,[12],Active
same,DC50,[13],540 nM
same,Activity,[14],inactive
same,Activity,[15],inactive
same,Activity,[16],Active
same,Activity,[17],Active
same,inhibition,[18],Active
same,Activity,[19],68%
